From US9834526B2 (MERCK SHARP & DOHME CORP., priority 2013, dated 2017) come the findings set out here.

This experiment concerns the target T1, wildtype HIV-1 protease (Human immunodeficiency virus type 1 group M subtype B, UniProt P04585).
T1 construct: preincubated with the HIV-1 protease (wild type) enzyme in assay buffer; made in house; host or cells: Escherichia coli
As to the kind of experiment: Inhibition of microbial expressed HIV protease (Pepcleav). The note with it: wild type HIV-1 protease expressed in E. coli, 20 pM enzyme, 400 micromolar peptide substrate, pH 5.5, LC-MS readout; mean of at least two independent experiments. In kind it is biochemical. As for the experimental part: Assay for Inhibition of Microbial Expressed HIV Protease (“Pepcleav”)
Studies of the inhibition of the wildtype HIV-1 protease (which was expressed in Escherichia coli) were carried out with a peptide substrate [Val-Ser-Gln-Asn-(βnaphthyl)Ala-Pro-Ile-Val (SEQ ID NO:1)]. The inhibitor was first preincubated with the HIV-1 protease (wild type) enzyme in assay buffer (50 mM sodium acetate, pH 5.5, 100 mM NaCl, and 0.1% BSA) for 30 minutes at room temperature. Substrate was added to 400 micromolar in a total volume of 20 microliters containing 20 picomolar HIV-1 protease (final) and the reaction was incubated for 1 hour at 30° C. The reaction was quenched with the addition of formic acid and indinavir to 0.012% and 150 nM final concentrations, respectively. The product formation was determined after separation of product and substrate on a Zorbax Eclipse XDB-C18 column connected to an API 4000 mass spectrometer (Applied Biosystems) with multiple reaction monitoring (transitions were 644.5/428.9 and 615.4/422.2 (M1/M3) for product and indinavir respectively). The extent of inhibition of the reaction was determined from the peak area of the products. Analysis of the products, independently synthesized, provided quantitation standards and confirmation of the product composition.

For `COC(=O)N[C@H](C(=O)Nc1ccccc1CC[C@@H]1CN[C@H](C)[C@@H](CSc2ccc(Cl)cc2)O1)C(c1ccccc1)c1ccccc1` [Example 1, N-(2-{2-[(2R,5R,6S)-6-{[(4-chlorophenyl)sulfanyl]methyl}-5-methylmorpholin-2-yl]ethyl}phenyl)-Nα-(methoxycarbonyl)-β-phenyl-L-phenylalaninamide], the 50% inhibitory concentration (IC50) was found to be 17.5 nM.
On to `COC(=O)N[C@H](C(=O)Nc1ccccc1CC[C@@H]1CN[C@H](C)[C@@H](COc2ccc(C#N)cc2)O1)C(c1ccccc1)c1ccccc1` [Example 2], for which the midpoint of inhibition, the IC50, lay at 222 nM.
`COC(=O)N[C@H](C(=O)Nc1ccccc1CC[C@@H]1CN[C@H](C)[C@@H](CSc2ncccc2Cl)O1)C(c1ccccc1)c1ccccc1` [Example 3, N-(2-{2-[(2R,5R,6S)-6-{[(3-chloropyridin-2-yl)sulfanyl]methyl}-5-methylmorpholin-2-yl]ethyl}phenyl)-Nα-(methoxycarbonyl)-β-phenyl-L-phenylalaninamide] gave a half-inhibitory concentration (IC50) of 7.52 nM.
As to `COC(=O)N[C@H](C(=O)Nc1ccccc1CC[C@@H]1CN[C@H](C)[C@@H](CSc2cccc3ncccc23)O1)C(c1ccccc1)c1ccccc1` [Example 4, methyl [(2S)-1-{[2-(2-{(2R,5R,6S)-5-methyl-6-[(quinolin-5-ylsulfanyl)methyl]morpholin-2-yl}ethyl)phenyl]amino}-1-oxo-3,3-diphenylpropan-2-yl]carbamate], half-maximal inhibition (IC50) required 10.6 nM. The IC50 values of the last two compounds are within 1.5-fold of each other.
The same measure for `COC(=O)N[C@H](C(=O)Nc1ccccc1CC[C@@H]1CN[C@H](C)[C@@H](CSc2nnc(-c3ccncc3)o2)O1)C(c1ccccc1)c1ccccc1` [Example 5, methyl N-[(1S)-1-benzhydryl-2-[[2-[2-[(2R,5R,6S)-5-methyl-6-[[5-(4-pyridyl)-1,3,4-oxadiazol-2-yl]sulfanylmethyl]morpholin-2-yl]ethyl]phenyl]amino]-2-oxo-ethyl]carbamate]: 4.96 nM.
The same measure for `COC(=O)N[C@H](C(=O)Nc1ccccc1CC[C@@H]1CN[C@H](C)[C@@H](CSc2nnc(Cn3nccc3C)o2)O1)C(c1ccccc1)c1ccccc1` [Example 6, methyl N-[(1S)-1-benzhydryl-2-[[2-[2-[(2R,5R,6S)-5-methyl-6-[[5-[(5-methylpyrazol-1-yl)methyl]-1,3,4-oxadiazol-2-yl]sulfanylmethyl]morpholin-2-yl]ethyl]phenyl]amino]-2-oxo-ethyl]carbamate]: 5.12 nM; for `COC(=O)N[C@H](C(=O)Nc1ccccc1CC[C@@H]1CN[C@H](C)[C@@H](CSc2nnc(Cc3csc(C)n3)o2)O1)C(c1ccccc1)c1ccccc1` [Example 7, methyl N-[(1S)-1-benzhydryl-2-[[2-[2-[(2R,5R,6S)-5-methyl-6-[[5-[(2-methylthiazol-4-yl)methyl]-1,3,4-oxadiazol-2-yl]sulfanylmethyl]morpholin-2-yl]ethyl]phenyl]amino]-2-oxo-ethyl]carbamate]: 7.95 nM; for `COC(=O)N[C@H](C(=O)Nc1ccccc1CC[C@@H]1CN[C@H](C)[C@@H](CSc2ccc(Cl)cn2)O1)C(c1ccccc1)c1ccccc1` [Example 8, methyl N-[(1S)-1-benzhydryl-2-[[2-[2-[(2R,5R,6S)-6-[(5-chloro-2-pyridyl)sulfanylmethyl]-5-methyl-morpholin-2-yl]ethyl]phenyl]amino]-2-oxo-ethyl]carbamate]: 8.35 nM.
The same measure for `COC(=O)N[C@H](C(=O)Nc1ccccc1CC[C@@H]1CN[C@H](C)[C@@H](CSc2cnc3ccccc3n2)O1)C(c1ccccc1)c1ccccc1` [Example 9, methyl N-[(1S)-1-benzhydryl-2-[[2-[2-[(2R,5R,6S)-5-methyl-6-(quinoxalin-2-ylsulfanylmethyl)morpholin-2-yl]ethyl]phenyl]amino]-2-oxo-ethyl]carbamate]: 8.48 nM.
Compound `COC(=O)N[C@H](C(=O)Nc1ccccc1CC[C@@H]1CN[C@H](C)[C@@H](CSc2ncnc3[nH]ncc23)O1)C(c1ccccc1)c1ccccc1` [Example 10, methyl N-[(1S)-1-benzhydryl-2-[[2-[2-[(2R,5R,6S)-5-methyl-6-(1H-pyrazolo[3,4-d]pyrimidin-4-ylsulfanylmethyl)morpholin-2-yl]ethyl]phenyl]amino]-2-oxo-ethyl]carbamate] displayed a half-maximal inhibitory concentration (IC50) of 9.43 nM. This IC50 and that of the compound before are within 1.5-fold of each other.
Compound `COC(=O)N[C@H](C(=O)Nc1ccccc1CC[C@@H]1CN[C@H](C)[C@@H](CSc2ncnc3c2cnn3C)O1)C(c1ccccc1)c1ccccc1` [Example 11, methyl N-[(1S)-1-benzhydryl-2-[[2-[2-[(2R,5R,6S)-5-methyl-6-[(1-methylpyrazolo[3,4-d]pyrimidin-4-yl)sulfanylmethyl]morpholin-2-yl]ethyl]phenyl]amino]-2-oxo-ethyl]carbamate] returned an IC50 of 11.7 nM.
`COC(=O)N[C@H](C(=O)Nc1ccccc1CC[C@@H]1CN[C@H](C)[C@@H](CSc2ccc(C)c(C)c2)O1)C(c1ccccc1)c1ccccc1` [Example 12, methyl N-[(1S)-1-benzhydryl-2-[[2-[2-[(2R,5R,6S)-6-[(3,4-dimethylphenyl)sulfanylmethyl]-5-methyl-morpholin-2-yl]ethyl]phenyl]amino]-2-oxo-ethyl]carbamate] showed a half-inhibitory concentration (IC50) of 11.9 nM.
Compound `COC(=O)N[C@H](C(=O)Nc1ccccc1CC[C@@H]1CN[C@H](C)[C@@H](CSc2nncs2)O1)C(c1ccccc1)c1ccccc1` [Example 13, methyl N-[(1S)-1-benzhydryl-2-[[2-[2-[(2R,5R,6S)-5-methyl-6-(1,3,4-thiadiazol-2-ylsulfanylmethyl)morpholin-2-yl]ethyl]phenyl]amino]-2-oxo-ethyl]carbamate] gave an IC50 of 12.5 nM. The IC50 values of the last two compounds are within 1.5-fold of each other.
Then `COC(=O)N[C@H](C(=O)Nc1ccccc1CC[C@@H]1CN[C@H](C)[C@@H](CSc2nc(C(F)(F)F)nc3ccccc23)O1)C(c1ccccc1)c1ccccc1` [Example 14, methyl N-[(1S)-1-benzhydryl-2-[[2-[2-[(2R,5R,6S)-5-methyl-6-[[2-(trifluoromethyl)quinazolin-4-yl]sulfanylmethyl]morpholin-2-yl]ethyl]phenyl]amino]-2-oxo-ethyl]carbamate], with 14.2 nM; and `CCC(O)(c1cnc(SC[C@H]2O[C@H](CCc3ccccc3NC(=O)[C@@H](NC(=O)OC)C(c3ccccc3)c3ccccc3)CN[C@@H]2C)s1)C(F)(F)F` (stereo partly drawn) [Example 15, methyl N-[(1S)-1-benzhydryl-2-[[2-[2-[(2R,5R,6S)-6-[[5-[1-hydroxy-1-(trifluoromethyl)propyl]thiazol-2-yl]sulfanylmethyl]-5-methyl-morpholin-2-yl]ethyl]phenyl]amino]-2-oxo-ethyl]carbamate], with 17.8 nM; and `COC(=O)N[C@H](C(=O)Nc1ccccc1CC[C@@H]1CN[C@H](C)[C@@H](CSc2nc(C)c(C)o2)O1)C(c1ccccc1)c1ccccc1` [Example 16, methyl N-[(1S)-1-benzhydryl-2-[[2-[2-[(2R,5R,6S)-6-[(4,5-dimethyloxazol-2-yl)sulfanylmethyl]-5-methyl-morpholin-2-yl]ethyl]phenyl]amino]-2-oxo-ethyl]carbamate], with 21.5 nM.
Then `COC(=O)N[C@H](C(=O)Nc1ccccc1CC[C@@H]1CN[C@H](C)[C@@H](CSc2nc3ccc(OC(F)F)cc3[nH]2)O1)C(c1ccccc1)c1ccccc1` [Example 17, methyl N-[(1S)-1-benzhydryl-2-[[2-[2-[(2R,5R,6S)-6-[[5-(difluoromethoxy)-1H-benzimidazol-2-yl]sulfanylmethyl]-5-methyl-morpholin-2-yl]ethyl]phenyl]amino]-2-oxo-ethyl]carbamate], with 25.1 nM; and `COC(=O)N[C@H](C(=O)Nc1ccccc1CC[C@@H]1CN[C@H](C)[C@@H](CSc2nc(C)cc(C(F)(F)F)n2)O1)C(c1ccccc1)c1ccccc1` [Example 18, methyl N-[(1S)-1-benzhydryl-2-[[2-[2-[(2R,5R,6S)-5-methyl-6-[[4-methyl-6-(trifluoromethyl)pyrimidin-2-yl]sulfanylmethyl]morpholin-2-yl]ethyl]phenyl]amino]-2-oxo-ethyl]carbamate], with 34.9 nM; and `COC(=O)N[C@H](C(=O)Nc1ccccc1CC[C@@H]1CN[C@H](C)[C@@H](CSc2ccncc2)O1)C(c1ccccc1)c1ccccc1` [Example 19, methyl N-[(1S)-1-benzhydryl-2-[[2-[2-[(2R,5R,6S)-5-methyl-6-(4-pyridylsulfanylmethyl)morpholin-2-yl]ethyl]phenyl]amino]-2-oxo-ethyl]carbamate], with 41.4 nM.
Then `COC(=O)N[C@H](C(=O)Nc1ccccc1CC[C@@H]1CN[C@H](C)[C@@H](CSc2ncccc2C(F)(F)F)O1)C(c1ccccc1)c1ccccc1` [Example 20, methyl N-[(1S)-1-benzhydryl-2-[[2-[2-[(2R,5R,6S)-5-methyl-6-[[3-(trifluoromethyl)-2-pyridyl]sulfanylmethyl]morpholin-2-yl]ethyl]phenyl]amino]-2-oxo-ethyl]carbamate], with 43.3 nM; and `COC(=O)N[C@H](C(=O)Nc1ccccc1CC[C@@H]1CN[C@H](C)[C@@H](CSc2nc3ccc(Cl)nc3s2)O1)C(c1ccccc1)c1ccccc1` [Example 21, methyl N-[(1S)-1-benzhydryl-2-[[2-[2-[(2R,5R,6S)-6-[(5-chlorothiazolo[5,4-b]pyridin-2-yl)sulfanylmethyl]-5-methyl-morpholin-2-yl]ethyl]phenyl]amino]-2-oxo-ethyl]carbamate], with 44.3 nM.

One may read the IC50 as the concentration that gives 50% inhibition. Read a low IC50 as inhibition by little substance.
